Data: publication PMC11070930 (The Biochemical journal, 2024)
Where two headings read alike, the source gives them in different places. Values belong to the molecule of their own block, whether it stands above or below them.

What was measured:
PARP1 [1] = biological target: T1, PARP1 (Homo sapiens, UniProt P09874); conditions: allosteric-based classification reported earlier; cited from earlier work
PARP1 [2] = biological target: T1, PARP1; assay: PARP1 enzyme inhibition assay; assay type: biochemical; conditions: for decrease in PARP1 inhibition potency compared to veliparib: relative to veliparib
[3] = biological target: PARP1 Zn1-Zn3 ΔZn2;PARP1 WGR-CAT ΔVE (Homo sapiens?;Homo sapiens?, UniProt P09874;P09874 1-366;518-1014, del97-206|del687-688); assay: X-ray crystallography
PARP1 WT [4] = biological target: T2, PARP1 WT (UniProt P09874 1-1014); assay: fluorescence polarization
PARP1 WT [5] = biological target: T2, PARP1 WT; assay: fluorescence polarization; remark: listed apart in the source
PARP1 WT [6] = biological target: T2, PARP1 WT; assay: fluorescence polarization; remark: listed apart in the source
PARP1 WT [7] = biological target: T2, PARP1 WT; assay: fluorescence polarization; remark: listed apart in the source
PARP1 WT [8] = biological target: T2, PARP1 WT; assay: fluorescence polarization; remark: listed apart in the source
PARP1 WT [9] = biological target: T2, PARP1 WT; assay: fluorescence polarization; remark: listed apart in the source
PARP1 WT [10] = biological target: T2, PARP1 WT; assay: fluorescence polarization; remark: listed apart in the source
PARP1 WT [11] = biological target: T2, PARP1 WT; assay: fluorescence polarization; remark: listed apart in the source
PARP1 WT [12] = biological target: T2, PARP1 WT; assay: fluorescence polarization; remark: listed apart in the source
PARP1 WT [13] = biological target: T2, PARP1 WT; assay: fluorescence polarization; remark: listed apart in the source
PARP1 WT [14] = biological target: T2, PARP1 WT; assay: fluorescence polarization; remark: listed apart in the source
PARP1 WT [15] = biological target: T2, PARP1 WT; assay: fluorescence polarization; remark: listed apart in the source
PARP1 WT [16] = biological target: T2, PARP1 WT; assay: fluorescence polarization; remark: listed apart in the source
[17] = read-out: PARP1 IC50, 10-point concentration-response curve, average of at least two independent experiments

Molecule: Cl.Cl.Nc1ncnc2c1ncn2[C@@H]1O[C@H](C(=O)N2CCN(CC(=O)Nc3cccc4c3CNC4=O)CC2)[C@@H](O)[C@H]1O [EB-47]
allosteric PARPi type (PARP1 [1]): Type I

Molecule: NC(=O)c1cccc2cn(-c3ccc([C@@H]4CCCNC4)cc3)nc12 [niraparib]
allosteric PARPi type (PARP1 [1]): Type III

Molecule: C[C@]1(c2nc3c(C(N)=O)cccc3[nH]2)CCCN1 [Veliparib]
allosteric PARPi type (PARP1 [1]): Type III

Molecule: NC(=O)c1cccc2[nH]c(-c3ccc(C(=O)N4CCn5c(nnc5C(F)(F)F)C4)cc3)nc12 [Compound 12, 2-(4-(3-(Trifluoromethyl)-5,6,7,8-tetrahydro-[1,2, 4]triazolo[4,3-a]pyrazine-7-carbonyl)phenyl)-1H-benzo[d]imidazole-4-carboxamide]
IC50 (PARP1 [2]; [17]): 25.4 nM

Molecule: NC(=O)c1cccc2[nH]c(-c3ccc(C(=O)NCCc4nc5ccccc5[nH]4)cc3)nc12 [Compound 10, 2-(4-((2-(1H-Benzo[d]imidazol-2-yl)ethyl)carbamoyl)phenyl)-1H-benzo[d]imidazole-4-carboxamide]
IC50 (PARP1 [2]): 3.1 nM

Molecule: NC(=O)c1cccc2[nH]c(-c3cccc(C(=O)N4CCn5c(nnc5C(F)(F)F)C4)c3)nc12 [Compound 13, 2-(3-(3-(Trifluoromethyl)-5,6,7,8-tetrahydro-[1,2, 4]triazolo[4,3-a]pyrazine-7-carbonyl)phenyl)-1H-benzo[d]imidazole-4-carboxamide]
IC50 (PARP1 [2]; [17]): 25.4 nM

Molecule: NC(=O)c1cccc([C@@H]2O[C@H](COP(=O)(O)OP(=O)(O)OC[C@H]3O[C@@H](n4cnc5c(N)ncnc54)[C@H](O)[C@@H]3O)[C@@H](O)[C@H]2O)c1 [BAD, benzamide adenine dinucleotide]
allosteric PARPi type (PARP1 [1]): Type I

Molecule: CNCc1ccc(-c2[nH]c3cc(F)cc4c3c2CCNC4=O)cc1 [rucaparib]
allosteric PARPi type (PARP1 [1]): Type III

Molecule: NC(=O)c1cccc2[nH]c(-c3ccc(C(=O)N4CCN(c5ncc(C(=O)O)cn5)CC4)cc3)nc12 [Compound 7, Sodium 2-(4-(4-(4-carbamoyl-1H-benzo[d]imidazol-2-yl)benzoyl)piperazin-1-yl)pyrimidine-5-carboxylate]
IC50 (PARP1 [2]): > 10 nM
inhibition at 0.01 µM (PARP1 [2]; read-out: PARP1 inhibition at 10 nM): 37%

B1: 5-bp DNA duplex (dsDNA)
DNA 1: CGACG
DNA 2: CGTCG
binding result [3]: binds

B2: 18-bp DNA duplex (dsDNA)
DNA 1: GGGTTGCGGCCGCTTGGG
DNA 2: CCCAAGCGGCCGCAACCC
Kd (PARP1 WT [4]): 117 ± 16.8 nM
Kd (PARP1 WT [5]): 210 ± 25 nM
Kd (PARP1 WT [6]): 4.5 ± 1.7 nM
Kd (PARP1 WT [7]): 47.7 ± 5.4 nM
Kd (PARP1 WT [8]): 62.2 ± 14.6 nM
Kd (PARP1 WT [9]): 11.8 ± 4.7 nM
Kd (PARP1 WT [10]): 41.7 ± 11.4 nM
Kd (PARP1 WT [11]): 61.9 ± 14.4 nM
Kd (PARP1 WT [12]): 29 ± 5.2 nM
Kd (PARP1 WT [13]): 61.7 ± 25.3 nM
Kd (PARP1 WT [14]): 52.3 ± 3.2 nM
Kd (PARP1 WT [15]): 82.1 ± 1.8 nM
Kd (PARP1 WT [16]): 112 ± 31.2 nM

Second part, led by results:

IC50 (PARP1 [2]): 121 nM
decrease in PARP1 inhibition potency compared to veliparib (PARP1 [2]): ~ 100 fold
Molecule: NC(=O)c1cccc2[nH]c(-c3cccc(C(=O)NCCc4nc5ccccc5[nH]4)c3)nc12 [Compound 11, 2-(3-((2-(1H-Benzo[d]imidazol-2-yl)ethyl)carbamoyl)phenyl)-1H-benzo[d]imidazole-4-carboxamide]

IC50 (PARP1 [2]): 3.9 nM
Molecule: NC(=O)c1cccc2[nH]c(-c3cccc(C(=O)N4CCN(c5nc6ccccc6[nH]5)CC4)c3)nc12 [Compound 9, 2-(3-(4-(1H-Benzo[d]imidazol-2-yl)piperazine-1-carbonyl)phenyl)-1H-benzo[d]imidazole-4-carboxamide]

IC50 (PARP1 [2]): 11.9 nM
decrease in PARP1 inhibition potency compared to veliparib (PARP1 [2]): approximately nine
Molecule: NC(=O)c1cccc2[nH]c(-c3ccc(C(=O)N4CCN(c5ncccn5)CC4)cc3)nc12 [Compound 4, 2-(4-(4-(Pyrimidin-2-yl)piperazine-1-carbonyl)phenyl)-1H-benzo[d]imidazole-4-carboxamide]

IC50 (PARP1 [2]): 8.9 nM
Molecule: NC(=O)c1cccc2[nH]c(-c3cccc(C(=O)N4CCN(c5ncccn5)CC4)c3)nc12 [Compound 5, 2-(3-(4-(Pyrimidin-2-yl)piperazine-1-carbonyl)phenyl)-1H-benzo[d]imidazole-4-carboxamide]

IC50 (PARP1 [2]): 2.8 nM
Molecule: COC(=O)c1cnc(N2CCN(C(=O)c3ccc(-c4nc5c(C(N)=O)cccc5[nH]4)cc3)CC2)nc1 [UKTT15 (6), Methyl 2-(4-(4-(4-carbamoyl-1H-benzo[d]imidazol-2-yl)benzoyl)piperazin-1-yl)pyrimidine-5-carboxylate]
allosteric PARPi type (PARP1 [1]): Type I

IC50 (PARP1 [2]): 6.2 nM
Molecule: NC(=O)c1cccc2[nH]c(-c3ccc(C(=O)N4CCN(c5nc6ccccc6[nH]5)CC4)cc3)nc12 [Compound 8, 2-(4-(4-(1H-Benzo[d]imidazol-2-yl)piperazine-1-carbonyl)phenyl)-1H-benzo[d]imidazole-4-carboxamide]

IC50 (PARP1 [2]): 17.3 nM
Molecule: Cc1cc(N)c(NC(=O)c2cccc(-c3nc4c(C(N)=O)cccc4[nH]3)c2)cc1C [Compound 14, 2-(3-((2-Amino-4,5-dimethylphenyl)carbamoyl)phenyl)-1H-benzo[d]imidazole-4-carboxamide]
